Source: patent US5663157A, “22-en-25-oxa derivatives in the vitamin D series, process for their production, pharmaceutical preparations containing these derivatives as well as their use as pharmaceutical agents” (Schering Aktiengesellschaft, priority 1992, dated 1997)

Assays:
HL 60 cells = test: HL 60 differentiation induction (NBT reduction to formazan); format: cell-based; details: Homo sapiens, 96 hours incubation, formazan at 650 nm, read-out: ED50 (differentiation induction of HL 60 cells to macrophages)
Method: HL 60 cells are cultivated in tissue-culture medium (RPMI-10% fetal calf serum) at 37° C. in an atmosphere of 5% CO2 in air.
For substance testing, the cells are centrifuged off and 2.8 ×10^5 cells/ml in phenol red-free tissue-culture medium are taken up. The test substances are dissolved in ethanol and diluted with tissue-culture medium without phenol red to the desired concentration. The dilution stages are mixed with the cell suspension in a ratio of 1:10 and pipetted in 100 μl each of this cell suspension mixed with substance in an indentation of a 96-hole plate. For control, a cell suspension is analogously mixed with the solvent.
After incubation over 96 hours at 37° C. in 5% CO2 in air, 100 μl of an NBT-TPA solution (nitro blue tetrazolium (NBT), final concentration in the batch of 1 mg/ml, tetradecanoyl phorbol myristate-13-acetate (TPA), final concentration in the batch of 2 ×10^-7 mol/l) is pipetted in the cell suspension in every indentation of the 96-hole plate.
By incubation over 2 hours at 37° C. and 5% CO2 in air, NBT is reduced to insoluble formazan because of the intracellular oxygen radical release, stimulated by TPA, in the cells differentiated to macrophages.
For completion of the reaction, the indentations of the 96-hole plate are suctioned off, and the adhering cells are fixed by adding methanol and dried after fixing.
To dissolve the formed intracellular formazan crystals, 100 μl of potassium hydroxide (2 val/l) and 100 μl of dimethyl sulfoxide are pipetted in each indentation and ultrasonically treated for 1 minute. The concentration of formazan is measured by spectrophotometry at 650 nm.
The concentration of formed formazan is regarded as a measurement for the differentiation induction of the HL 60 cells to macrophages.

[1] = hypercalcemic and hypercalcinuric activity in vivo; design: species or system Wistar rats; details: for calcium excretion in second collecting phase (16-22 hours), result in words: 200 μg/kg s.c. versus calcitriol 2 μg/kg and solvent control; for serum calcium concentration: 22 hours after administration, solvent control 3.0 mmol/l; for calcium excretion in urine, second collecting phase (16-22 hours): after oral calcium, solvent control 1.5 μmol/animal; for calcium excretion in urine, first collecting phase (0-16 hours): solvent control 12.2 μmol/animal; for hypercalcemia induction: 200 μg/kg subcutaneous; for hypercalcemia induction / in vivo potency reduced by factor in comparison to calcitriol: male Wistar rats; for in vivo potency reduced by factor in comparison to calcitriol: calcium metabolism, subcutaneous
Method: To assess the corresponding activities of the substances according to the invention, the hypercalcemic and hypercalcinuric activity in vivo is determined. […] Urine is collected in the period of 0-16 hours after substance administration. Then, the animals orally receive 1 μmol of calcium in 6.5% klucel (hydroxypropyl cellulose) and again urine is collected for the period of 16-22 hours after substance administration. The urine volume of each fraction is measured to measure the absolute calcium excretion. After 22 hours, the animals are killed by decapitation and the blood is collected. The calcium concentration in serum and urine is determined by flame photometry.

SMILES	EC50 (HL 60 cells) [nM]	calcium excretion in second collecting phase (16-22 hours), result in words [1]	serum calcium concentration ([1]; 200 μg/kg s.c.) [mmol/L]	calcium excretion in urine, second collecting phase (16-22 hours) ([1]; 200 μg/kg s.c.) [μmol/animal]	calcium excretion in urine, first collecting phase (0-16 hours) ([1]; 200 μg/kg s.c.) [μmol/animal]	hypercalcemia induction [1]	in vivo potency reduced by factor in comparison to calcitriol [1]	calcium excretion in urine, second collecting phase (16-22 hours) ([1]; calcitriol 2 μg/kg s.c.) [μmol/animal]	calcium excretion in urine, first collecting phase (0-16 hours) ([1]; calcitriol 2 μg/kg s.c.) [μmol/animal]
C=C1/C(=C\C=C2/CCC[C@]3(C)[C@@H]([C@H](C)/C=C/COCC(C)(C)O)CC[C@@H]23)C[C@@H](O)C[C@@H]1O [compound 16, (5Z,7E,22E)-(1S,3R)-24-(2-Hydroxy-2-methylpropoxy)-9,10-secochola-5,7,10(19),22-tetraene-1,3-diol]	3.2	not increased relative to the solvent control	3.0	3.6	62.4	no hypercalcemia	> 100	–	–
C=C1/C(=C\C=C2/CCC[C@]3(C)[C@@H]([C@H](C)/C=C/COCC(O)(CC)CC)CC[C@@H]23)C[C@@H](O)C[C@@H]1O [compound 17, (5Z,7E,22E)-(1S,3R)-24-(2-Ethyl-2-hydroxybutoxy)-9,10-secochola-5,7,10(19),22-tetraene-1,3-diol]	1	not significantly different to the standard calcitriol	3.4	47.0	61.7	slight hypercalcemia	~100	–	–
C=C1/C(=C\C=C2/CCC[C@]3(C)[C@@H]([C@H](C)CCCC(C)(C)O)CC[C@@H]23)C[C@@H](O)C[C@@H]1O [calcitriol, 1α,25-Dihydroxycholecalciferol, reference compound]	1.6	–	–	–	–	–	–	25.1	40.6
